Values after ≈ are worked out from the molar mass of the structure shown.
What was measured:
Assay in all cases: In vitro antibacterial activity, MIC by agar dilution
Assay type in all cases: cell-based
Settings in all cases: BHI agar, 35-37°C, 20-24 hours, unit assumed
[1] = system: Pseudomonas aeruginosa A5007
Description: (§1) Each plate was inoculated with 1:100 (or 1:10 for slow growing strains, primarily Micrococcus and Streptococcus) dilutions of up to 32 different microorganisms, using a Steers replicator block calibrated to deliver approximately 10^4 colony forming units (CFUs). The inoculated plates were incubated at from about 35°C to about 37°C for approximately 20-24 hours. In addition, a control plate using BHI agar containing no test compound was prepared and incubated at the beginning and at the end of each test. Ciprofloxacin was used as the control antibiotic.
(§2) The MIC was defined as the lowest concentration of test compound yielding no growth (a slight haze or sparsely isolated colonies at the inoculum spot) as compared to the growth control containing no test compound.

[2] = system: Acinetobacter calcoaceticus CMX 669
Description: as §1, §2

Escherichia coli SS = system: Escherichia coli SS
Description: as §1, §2

[3] = system: Micrococcus luteus ATCC 4698
Description: as §1, §2

[4] = system: Pseudomonas aeruginosa K799/WT
Description: as §1, §2

[5] = system: Pseudomonas aeruginosa K799/61
Description: as §1, §2

Escherichia coli JUHL = system: Escherichia coli JUHL
Description: as §1, §2

Escherichia coli KNK 437 = system: Escherichia coli KNK 437
Description: as §1, §2

[6] = system: Pseudomonas aeruginosa 5263
Description: as §1, §2

[7] = system: Streptococcus pyrogenes CONST
Description: as §1, §2

[8] = system: Staphylococcus aureus A-5278
Description: as §1, §2

[9] = system: Providencia stuartii CMX 640
Description: as §1, §2

Pseudomonas cepacia 296I = system: Pseudomonas cepacia 296I
Description: as §1, §2

[10] = system: Streptococcus agalactaciae CMX 508
Description: as §1, §2

[11] = system: Streptococcus bovis A5169
Description: as §1, §2

[12] = system: Pseudomonas aeruginosa 2862
Description: as §1, §2

[13] = system: Pseudomonas aeruginosa BMH10
Description: as §1, §2

[14] = system: Staphylococcus aureus 1775
Description: as §1, §2

[15] = system: Staphylococcus aureus A5177
Description: as §1, §2

[16] = system: Streptococcus pyrogenes EES61
Description: as §1, §2

Escherichia coli DC-2 = system: Escherichia coli DC-2
Description: as §1, §2

[17] = system: Enterobacter aerogenes ATCC 13048
Description: as §1, §2

[18] = system: Streptococcus pyrogenes 2548 INDUC
Description: as §1, §2

[19] = system: Staphylococcus aureus 642A
Description: as §1, §2

Escherichia coli H560 = system: Escherichia coli H560
Description: as §1, §2

[20] = system: Staphylococcus aureus CMX 553
Description: as §1, §2

[21] = system: Staphylococcus aureus ATCC 6538P
Description: as §1, §2

[22] = system: Micrococcus luteus ATCC 9341
Description: as §1, §2

[23] = system: Staphylococcus epidermidis 3519
Description: as §1, §2

[24] = system: Staphylococcus aureus NCTC 10649
Description: as §1, §2

[25] = system: Enterococcus faecium ATCC 8043
Description: as §1, §2

[26] = system: Klebsiella pneumoniae ATCC 8045
Description: as §1, §2

| SMILES | MIC values [1] [µg/mL] | MIC values [2] [µg/mL] | MIC values (Escherichia coli SS) [µg/mL] | MIC values [3] [µg/mL] | MIC values [4] [µg/mL] | MIC values [5] [µg/mL] | MIC values (Escherichia coli JUHL) [µg/mL] | MIC values (Escherichia coli KNK 437) [µg/mL] | MIC values [6] [µg/mL] | MIC values [7] [µg/mL] | MIC values [8] [µg/mL] | MIC values [9] [µg/mL] | MIC values (Pseudomonas cepacia 296I) [µg/mL] | MIC values [10] [µg/mL] | MIC values [11] [µg/mL] | MIC values [12] [µg/mL] | MIC values [13] [µg/mL] | MIC values [14] [µg/mL] | MIC values [15] [µg/mL] | MIC values [16] [µg/mL] | other results |
| --- | --- | --- | --- | --- | --- | --- | --- | --- | --- | --- | --- | --- | --- | --- | --- | --- | --- | --- | --- | --- | --- |
| O=C(O)c1cn(C2CC2)c2cc(N3CCNCC3)c(F)cc2c1=O [Cntl, Ciprofloxacin, reference compound] | 0.1 (≈ 0.302 µM) | 0.39 (≈ 1.18 µM) | 0.005 (≈ 0.0151 µM) | 0.78 (≈ 2.35 µM) | 0.1 (≈ 0.302 µM) | 0.02 (≈ 0.0604 µM) | 0.01 (≈ 0.0302 µM) | 0.2 (≈ 0.604 µM) | 12.5 (≈ 37.7 µM) | 0.78 (≈ 2.35 µM) | 0.39 (≈ 1.18 µM) | 0.78 (≈ 2.35 µM) | 3.1 (≈ 9.36 µM) | 0.39 (≈ 1.18 µM) | 1.56 (≈ 4.71 µM) | 25 (≈ 75.4 µM) | 0.1 (≈ 0.302 µM) | > 100 | 0.39 (≈ 1.18 µM) | 0.39 (≈ 1.18 µM) | MIC values (Escherichia coli DC-2): 0.2 µg/mL (≈ 0.604 µM); MIC values [17]: 0.05 µg/mL (≈ 0.151 µM); MIC values [18]: 0.39 µg/mL (≈ 1.18 µM); MIC values [19]: 0.39 µg/mL (≈ 1.18 µM); MIC values (Escherichia coli H560): 0.01 µg/mL (≈ 0.0302 µM); MIC values [20]: 0.78 µg/mL (≈ 2.35 µM); MIC values [21]: 0.2 µg/mL (≈ 0.604 µM); MIC values [22]: 1.56 µg/mL (≈ 4.71 µM); MIC values [23]: 0.39 µg/mL (≈ 1.18 µM); MIC values [24]: 0.39 µg/mL (≈ 1.18 µM); MIC values [25]: 0.39 µg/mL (≈ 1.18 µM); MIC values [26]: 0.02 µg/mL (≈ 0.0604 µM) |
| CN1CCN(c2nc3c(C4CC4)cc(C(=O)O)c(=O)n3cc2F)CC1 [Example 163, 9-Cyclopropyl-3-fluoro-2-(4-methylpiperazin-1-yl)-6H-6-oxo-pyrido[1,2-a]pyrimidine-7-carboxylic acid] | 3.1 (≈ 8.95 µM) | 0.39 (≈ 1.13 µM) | 0.1 (≈ 0.289 µM) | 12.5 (≈ 36.1 µM) | 3.1 (≈ 8.95 µM) | 1.56 (≈ 4.5 µM) | 0.2 (≈ 0.577 µM) | 3.1 (≈ 8.95 µM) | 100 (≈ 289 µM) | 12.5 (≈ 36.1 µM) | 1.56 (≈ 4.5 µM) | 50 (≈ 144 µM) | 12.5 (≈ 36.1 µM) | 12.5 (≈ 36.1 µM) | 50 (≈ 144 µM) | > 100 | 1.56 (≈ 4.5 µM) | 100 (≈ 289 µM) | 1.56 (≈ 4.5 µM) | 12.5 (≈ 36.1 µM) | MIC values (Escherichia coli DC-2): 6.2 µg/mL (≈ 17.9 µM); MIC values [17]: 0.39 µg/mL (≈ 1.13 µM); MIC values [18]: 12.5 µg/mL (≈ 36.1 µM); MIC values [19]: 1.56 µg/mL (≈ 4.5 µM); MIC values (Escherichia coli H560): 0.1 µg/mL (≈ 0.289 µM); MIC values [20]: 1.56 µg/mL (≈ 4.5 µM); MIC values [21]: 1.56 µg/mL (≈ 4.5 µM); MIC values [22]: 25 µg/mL (≈ 72.2 µM); MIC values [23]: 1.56 µg/mL (≈ 4.5 µM); MIC values [24]: 0.78 µg/mL (≈ 2.25 µM); MIC values [25]: 12.5 µg/mL (≈ 36.1 µM); MIC values [26]: 0.1 µg/mL (≈ 0.289 µM) |
| O=C(O)c1cc(C2CC2)c2nc(N3CCNCC3)c(F)cn2c1=O [Example 164, 9-Cyclopropyl-3-fluoro-2-(piperazin-1-yl)-6H-6-oxo-pyrido[1,2-a]pyrimidine-7-carboxylic acid] | 0.39 (≈ 1.17 µM) | 0.39 (≈ 1.17 µM) | 0.02 (≈ 0.0602 µM) | 6.2 (≈ 18.7 µM) | 0.39 (≈ 1.17 µM) | 0.1 (≈ 0.301 µM) | 0.05 (≈ 0.15 µM) | 1.56 (≈ 4.69 µM) | 100 (≈ 301 µM) | 12.5 (≈ 37.6 µM) | 1.56 (≈ 4.69 µM) | 12.5 (≈ 37.6 µM) | 3.1 (≈ 9.33 µM) | 12.5 (≈ 37.6 µM) | 12.5 (≈ 37.6 µM) | 100 (≈ 301 µM) | 0.39 (≈ 1.17 µM) | 50 (≈ 150 µM) | 1.56 (≈ 4.69 µM) | 12.5 (≈ 37.6 µM) | MIC values (Escherichia coli DC-2): 1.56 µg/mL (≈ 4.69 µM); MIC values [17]: 0.05 µg/mL (≈ 0.15 µM); MIC values [18]: 12.5 µg/mL (≈ 37.6 µM); MIC values [19]: 1.56 µg/mL (≈ 4.69 µM); MIC values (Escherichia coli H560): 0.1 µg/mL (≈ 0.301 µM); MIC values [20]: 1.56 µg/mL (≈ 4.69 µM); MIC values [21]: 0.78 µg/mL (≈ 2.35 µM); MIC values [22]: 12.5 µg/mL (≈ 37.6 µM); MIC values [23]: 1.56 µg/mL (≈ 4.69 µM); MIC values [24]: 1.56 µg/mL (≈ 4.69 µM); MIC values [25]: 12.5 µg/mL (≈ 37.6 µM); MIC values [26]: 0.05 µg/mL (≈ 0.15 µM) |

— EP0527889B1, “QUINOLIZINONE TYPE COMPOUNDS” (priority 1990, dated 1991)
